Reference: patent US10738007B2, “Amide compounds as kinase inhibitors, compositions and methods of treatment” (TRANSLATIONAL DRUG DEVELOPMENT, LLC, priority 2016, dated 2020)
Like-named read-outs stand apart in the source and are kept apart here.

Assays:
ROCK2 = ROCK2 (Homo sapiens (Human), UniProt O75116); test: ROCK2 kinase inhibition assay (peptide phosphorylation, LABCHIP 3000); format: biochemical; conditions: 7 μM ATP, 2.5 nM ROCK2, 3 hours at 25° C.
Experimental: (§1) The peptide is phosphorylated by the protein kinase ROCK1 or ROCK2. The ROCK1 or ROCK2 enzyme, substrate, and cofactors (ATP and Mg^2+) are combined in a well of a microtiter plate and incubated for 3 hours at 25° C. in the presence or absence of an inhibitor compound. At the end of the incubation, the reaction is quenched by the addition of an EDTA-containing buffer. The substrate and product are separated and quantified electrophoretically using the microfluidic-based LABCHIP® 3000 Drug Discovery System from Caliper Life Sciences (Hopkinton, Mass.).
(§2) The components of the assay mixture are:
10 μM Sodium Orthovanadate
10 LM Beta-Glycerophosphate
(§3) 5 μM ATP (for ROCK1) or 7 μM ATP (for ROCK2)
3 nM ROCK1 or 2.5 nM ROCK2 enzyme
(§4) Substrate and product peptides present in each sample are separated electrophoretically using the LABCHIP® 3000 capillary electrophoresis instrument. […] Change in the relative fluorescence intensity of the substrate and product peaks is the parameter measured reflecting enzyme activity. Capillary electrophoregramms (RDA acquisition files) are analyzed using HTS Well Analyzer software (Caliper Life Sciences, Hopkinton, Mass.). The kinase activity in each sample is determined as the product to sum ratio (PSR): P/(S+P), where P is the peak height of the product peptide and S is the peak height of the substrate peptide. For each compound, enzyme activity is measured at various concentrations (12 concentrations of compound spaced by 3× dilution intervals). Negative control samples (0%-inhibition in the absence of inhibitor) and positive control samples (100%-inhibition in the presence of 20 mM EDTA) are assembled in replicates of four and are used to calculate %-inhibition values for each compound at each concentration. Percent inhibition (Pinh) is determined using the following equation: Pinh=(PSRO %−PSRinh)/(PSRO %−PSR100%)*100
(§5) where PSRinh is the product sum ratio in the presence of inhibitor, PSRO % is the average product sum ratio in the absence of inhibitor, and PSR100% is the average product sum ratio in 100%-inhibition control samples. The IC50 values of inhibitors are determined by fitting the inhibition curves (Pinh versus inhibitor concentration) by the 4-parameter sigmoidal dose-response model using XLfit 4 software (IBDS).

MV411 cell line = test: Cell viability assay ([…]-GLO), MV411; format: cell-based; conditions: for IC50: Homo sapiens, MV4-11, MV411 (ITD-FLT3+), 72 hours treatment; for FLT3-ITD+ Selectivity (K562/MV411): ratio K562/MV411
Experimental: Cell viability was measured by the […] -GlO® cell viability assay from Promega (Madison, Wis.). The […] -GlO Luminescent Cell Viability Assay is a homogeneous method to determine the number of viable cells in culture based on quantitation of the ATP present, which signals the presence of metabolically active cells. Following treatment, […] -GlO® is added to treatment wells and incubated at 37° C. Luminescence values were measured at using a Molecular Devices Spectramax microplate reader.

K562 cell line = test: Cell viability assay ([…]-GLO), K562; format: cell-based; conditions: Homo sapiens; K562 (does not express ITD-FLT3), 72 hours treatment
Experimental: Cell viability in the presence of varying concentrations of the above listed compounds at different time points was used to assess cytotoxicity and the effect of the compounds on cell proliferation.
Cell viability was measured by the […]-GlO® cell viability assay from Promega (Madison, Wis.). The […]-GlO Luminescent Cell Viability Assay is a homogeneous method to determine the number of viable cells in culture based on quantitation of the ATP present, which signals the presence of metabolically active cells. Following treatment, […]-GlO® is added to treatment wells and incubated at 37° C. Luminescence values were measured at using a Molecular Devices Spectramax microplate reader.
Cells were grown to 70% confluency, trypsinized, counted, and seeded in 96 well flat-bottom plates at a final concentration of 2.5×10^3-5×10^3 cells/well (Day 0). Cells were allowed to incubate in growth media for 24 hours. Treatment with the test agents or standard agents began on Day 1 and continued for 72 hours. At the 72-hour time point, treatment containing media was removed. Viable cell numbers were quantified by the […]-GLO® cell viability assay as described above. Results from these studies were used to calculate an IC50 value (concentration of drug that inhibits cell growth by 50 percent of control) for each compound.
For single agent and combination studies, data from each experiment was collected and expressed as % Cell Growth using the following calculation: % Cell Growth=(ftest/fvehicle)×100
Where ftest is the luminescence of the tested sample, and fvehicle is the luminescence of the vehicle in which the drug is dissolved. Dose response graphs and IC50 values were generated using Prism 6 software (GraphPad) using the following equation: Y=(Top−Bottom)/(1+10^((logIC50-X)−HillSlope))
Where X is the logarithm of the concentration and Y is the response. Y starts at the Bottom and goes to the Top with a sigmoid shape.
The experiments also evaluated the selectivity of the compounds for inhibiting growth of cancer cells carrying a mutation in the Flt3 gene. The MV411 cell line expresses the mutant allele of Flt3 with internal tandem duplications (ITD) of the gene. See Quentmeier et al., “FLT3 Mutations in Acute Myeloid Leukemia Cell Lines,” Leukemia 17(1), 2003, 120-124. […] See Grafone et al., “Monitoring of FLT3 Phosphorylation Status and Its Response to Drugs By Flow Cytometry in AML Blast Cells,” Hematol Oncol. 26(3), 2008, 159-166.

ROCK1 = ROCK1 (Homo sapiens (Human), UniProt Q13464); test: ROCK1 kinase inhibition assay (peptide phosphorylation, LABCHIP 3000); format: biochemical; conditions: 5 μM ATP, 3 nM ROCK1, 3 hours at 25° C.
Sequence of ROCK1 (Q13464 whole entry, species assumed): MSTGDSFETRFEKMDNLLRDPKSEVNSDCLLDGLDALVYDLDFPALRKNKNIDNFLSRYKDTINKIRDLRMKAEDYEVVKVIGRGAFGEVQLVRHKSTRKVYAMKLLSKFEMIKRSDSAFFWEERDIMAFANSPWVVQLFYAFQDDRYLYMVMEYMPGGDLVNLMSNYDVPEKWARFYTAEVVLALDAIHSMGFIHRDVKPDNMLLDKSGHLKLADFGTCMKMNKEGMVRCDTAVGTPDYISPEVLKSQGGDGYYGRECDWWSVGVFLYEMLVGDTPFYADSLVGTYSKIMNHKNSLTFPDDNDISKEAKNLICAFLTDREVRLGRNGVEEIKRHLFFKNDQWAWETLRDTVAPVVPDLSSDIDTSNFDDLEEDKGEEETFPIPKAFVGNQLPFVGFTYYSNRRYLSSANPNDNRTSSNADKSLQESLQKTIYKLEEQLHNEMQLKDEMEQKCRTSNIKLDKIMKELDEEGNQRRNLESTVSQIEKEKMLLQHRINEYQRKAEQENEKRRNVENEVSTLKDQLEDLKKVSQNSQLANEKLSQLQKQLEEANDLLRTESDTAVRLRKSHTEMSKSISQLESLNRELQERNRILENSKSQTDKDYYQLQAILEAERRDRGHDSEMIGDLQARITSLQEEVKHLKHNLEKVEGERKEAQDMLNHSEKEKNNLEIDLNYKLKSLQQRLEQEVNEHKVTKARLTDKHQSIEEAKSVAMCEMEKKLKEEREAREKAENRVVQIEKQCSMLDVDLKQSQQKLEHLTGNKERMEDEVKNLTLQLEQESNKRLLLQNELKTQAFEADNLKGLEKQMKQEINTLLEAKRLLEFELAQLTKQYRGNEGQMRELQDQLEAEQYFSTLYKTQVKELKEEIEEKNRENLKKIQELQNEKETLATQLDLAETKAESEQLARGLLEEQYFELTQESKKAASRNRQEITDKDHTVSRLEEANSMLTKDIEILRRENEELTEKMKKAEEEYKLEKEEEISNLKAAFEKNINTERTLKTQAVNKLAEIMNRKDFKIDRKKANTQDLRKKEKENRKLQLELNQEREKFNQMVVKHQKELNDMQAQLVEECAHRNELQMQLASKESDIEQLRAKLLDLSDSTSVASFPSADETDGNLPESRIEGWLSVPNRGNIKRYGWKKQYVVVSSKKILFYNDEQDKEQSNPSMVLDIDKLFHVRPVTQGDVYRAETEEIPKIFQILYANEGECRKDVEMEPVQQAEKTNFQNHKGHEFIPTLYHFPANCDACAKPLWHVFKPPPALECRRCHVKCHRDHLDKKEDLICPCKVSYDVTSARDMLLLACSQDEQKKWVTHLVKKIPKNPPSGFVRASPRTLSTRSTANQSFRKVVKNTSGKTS
Experimental: as §1, §2
10 μM Sodium Orthovanadate
10 LM Beta-Glycerophosphate
as §3
3 nM ROCK1 or 2.5 nM ROCK2 enzyme
as §4, §5

[1] = Pharmacokinetic activity in mice; format: in vivo; conditions: for AUC(0-t): read-out: AUC0-8; for Vd: read-out: Vss
Experimental: Compounds were individually and accurately weighed out to produce a stock solution in Dimethyl-sulfoxide (DMSO) at a concentration of 2 mg/mL and stored at −20° C. From the stock solution, a working stock was prepared by diluting it in Methanol-Water 50:50 (v/v) at 20 μg/mL for calibration curve preparation and stored at 4° C. Standards used for quantitation and quality control samples (QCs) were prepared on the same day of sample processing using blank plasma obtained from non-treated mice. For each analyte, standards were prepared through serial dilutions of the working stock at concentrations of 0.1, 0.5, 1.0, 10, 50, 100, 500, and 1000 ng/mL; QCs were prepared at intermediate concentrations of 0.75, 7.5, 75, and 750 ng/mL. Plasma samples were stored at −80° C. until ready for analysis and then placed on ice for thawing. An aliquot of […] samples, standards, or QCs, were transferred into a 96-well extraction plate according to a pre-defined layout. An appropriate volume of Methanol-Formic Acid 99.9-0.1 containing internal standard (Verapamil at 25 ng/mL) was added to each well and the samples were extracted under vacuum. Eluent was then transferred into a LCMS plate for analysis using a suitable column for separation and MRM detection. Concentration of analytes was calculated based on the calibration curve and analyzed for pharmacokinetic parameters by using Non-compartmental analysis (NCA). Parameters such as Cmax, Tmax, half-life, AUC(0-last), AUC(0-∞), volume of distribution (Vss), and clearance (Cl/F) were reported.

Sequence of ROCK2 (O75116 whole entry, species assumed): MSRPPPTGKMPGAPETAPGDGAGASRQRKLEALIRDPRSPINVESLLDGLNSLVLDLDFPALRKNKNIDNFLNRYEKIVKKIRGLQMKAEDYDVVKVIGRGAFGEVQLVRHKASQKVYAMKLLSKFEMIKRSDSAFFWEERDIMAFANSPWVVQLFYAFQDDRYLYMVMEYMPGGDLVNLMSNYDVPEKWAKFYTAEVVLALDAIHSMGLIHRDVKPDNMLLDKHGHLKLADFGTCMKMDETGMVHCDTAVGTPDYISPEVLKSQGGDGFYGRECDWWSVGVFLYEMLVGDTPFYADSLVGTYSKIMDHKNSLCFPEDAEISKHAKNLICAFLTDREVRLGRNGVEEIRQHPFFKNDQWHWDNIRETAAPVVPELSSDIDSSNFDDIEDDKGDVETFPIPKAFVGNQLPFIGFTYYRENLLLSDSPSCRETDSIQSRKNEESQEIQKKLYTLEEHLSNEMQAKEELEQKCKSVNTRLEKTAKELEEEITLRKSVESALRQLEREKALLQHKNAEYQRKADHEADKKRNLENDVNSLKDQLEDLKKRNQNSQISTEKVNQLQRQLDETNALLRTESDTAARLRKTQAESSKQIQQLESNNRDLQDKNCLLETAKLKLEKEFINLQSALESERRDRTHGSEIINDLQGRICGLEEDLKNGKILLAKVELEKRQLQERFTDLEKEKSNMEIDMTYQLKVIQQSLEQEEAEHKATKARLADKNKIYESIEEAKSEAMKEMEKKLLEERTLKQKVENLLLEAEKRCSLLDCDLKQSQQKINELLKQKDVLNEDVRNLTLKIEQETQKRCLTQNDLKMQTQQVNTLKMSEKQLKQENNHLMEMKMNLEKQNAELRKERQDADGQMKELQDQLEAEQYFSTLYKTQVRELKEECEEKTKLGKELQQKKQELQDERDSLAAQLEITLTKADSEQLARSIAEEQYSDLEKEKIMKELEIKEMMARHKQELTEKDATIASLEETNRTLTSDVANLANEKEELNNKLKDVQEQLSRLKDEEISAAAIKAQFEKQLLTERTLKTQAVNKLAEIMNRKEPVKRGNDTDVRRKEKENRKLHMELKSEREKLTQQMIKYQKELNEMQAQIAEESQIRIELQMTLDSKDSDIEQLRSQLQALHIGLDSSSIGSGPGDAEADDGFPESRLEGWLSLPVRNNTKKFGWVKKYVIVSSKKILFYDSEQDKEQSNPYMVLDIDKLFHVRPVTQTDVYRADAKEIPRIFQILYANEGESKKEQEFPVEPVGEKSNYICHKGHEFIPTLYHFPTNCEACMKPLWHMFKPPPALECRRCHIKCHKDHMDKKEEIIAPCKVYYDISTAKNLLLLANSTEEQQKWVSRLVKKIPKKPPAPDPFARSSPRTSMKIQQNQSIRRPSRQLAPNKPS

IC50 (ROCK2)	IC50 (MV411 cell line)	IC50 (K562 cell line)	IC50 (ROCK1)	SMILES	FLT3-ITD+ Selectivity (K562/MV411) (MV411 cell line)	other results
0.88 nM	120 nM	> 100000 nM	3.2 nM	COc1cc(-c2cn[nH]c2)ccc1C(=O)N[C@H](CO)c1cccc(C(=O)NC2CCCC2)c1 [Compound 81]	833	–
1.02 nM	240 nM	45000 nM	3.91 nM	COCCOc1cc(-c2cn[nH]c2)ccc1C(=O)N[C@H](C)c1cccc(C(=O)NC2CCCC2)c1 [Compound 115]	188	–
6 nM	8900 nM	> 100000 nM	11.6 nM	CN1CCn2nc(NC(=O)c3cccc(CNC(=O)c4ccc(-c5ccncc5)cc4)c3)cc2C1 [Compound 1]	>11	–
0.9 nM	310 nM	85000 nM	3.84 nM	CCc1ccc(-c2ccncc2)cc1C(=O)N[C@H](CO)c1cccc(C(=O)NC2CCCC2)c1 [Compound 70]	275	–
0.52 nM	140 nM	8000 nM	1.51 nM	CCOc1cc(-c2cn[nH]c2)ccc1C(=O)N[C@H](C)c1cccc(C(=O)NC2CCCC2)c1 [Compound 103]	59	–
1.5 nM	7400 nM	48000 nM	3.7 nM	O=C(NC1CCCCC1)c1cccc([C@@H](CO)NC(=O)c2ccc(-c3ccncc3)cc2)c1 [Compound 26]	6	–
14.2 nM	2400 nM	> 100000 nM	38.8 nM	O=C(COc1cccc(CNC(=O)c2ccc(-c3ccncc3)cc2)c1)NC1CC1 [Compound 3]	>42	–
–	–	–	1.7 nM	COc1ccc(NC(=O)c2cccc([C@@H](CO)NC(=O)c3ccc(-c4ccncc4)cc3)c2)cn1 [Compound 80]	–	–
0.68 nM	30 nM	> 100000 nM	1.9 nM	O=C(NC1CCN(CC(F)(F)F)CC1)c1cccc([C@@H](CO)NC(=O)c2ccc(-c3ccncc3)cc2)c1 [Compound 79]	>3333	–
1 nM	–	–	2.1 nM	CN(C)c1cccc(CNC(=O)c2cccc([C@@H](CO)NC(=O)c3ccc(-c4ccncc4)cc3)c2)c1 [Compound 31]	–	–

Second part, the compound before the results:

SMILES	IC50 (ROCK2)	IC50 (MV411 cell line)	IC50 (K562 cell line)	IC50 (ROCK1)	FLT3-ITD+ Selectivity (K562/MV411) (MV411 cell line)	other results
Cc1ccc(-c2ccncc2)cc1C(=O)N[C@H](CO)c1cccc(C(=O)NC2CCCC2)c1 [Compound 64]	5.2 nM	1490 nM	> 100000 nM	16.8 nM	>68	–
CN1CCc2ccc(NC(=O)c3cccc([C@@H](CO)NC(=O)c4ccc(-c5ccncc5)cc4)c3)cc2C1 [Compound 7]	1.5 nM	60 nM	20400 nM	–	333	AUC % Extrap ([1]; IV - 1 mg/kg): 3.29%; Cl/F obs ([1]; IV - 1 mg/kg): 68.7 mL/min/kg; R-sq ([1]; IV - 1 mg/kg): 0.88; R-sq ([1]; PO - 5 mg/kg): 0.47; AUC(0-inf) ([1]; mouse, plasma, IV - 1 mg/kg): 243 ng·h/mL; C0 ([1]; mouse, plasma, IV - 1 mg/kg): 411 ng/mL; Cmax ([1]; mouse, plasma, IV - 1 mg/kg): 190 ng/mL; Tmax ([1]; mouse, plasma, IV - 1 mg/kg): 0.25 h; half-life ([1]; mouse, plasma, IV - 1 mg/kg): 6.43 h; AUC(0-t) ([1]; mouse, plasma, IV - 1 mg/kg): 235 ng·h/mL; Vd ([1]; mouse, plasma, IV - 1 mg/kg): 16.3 L/kg; Cmax ([1]; mouse, plasma, PO - 5 mg/kg): 5.3 ng/mL; Tmax ([1]; mouse, plasma, PO - 5 mg/kg): 1 h; AUC(0-t) ([1]; mouse, plasma, PO - 5 mg/kg): 81.6 ng·h/mL
CCN(CC)C1CCC(NC(=O)c2cccc([C@@H](CO)NC(=O)c3ccc(-c4ccncc4)cc3)c2)CC1 (stereo partly shown) [Compound 35]	1.2 nM	–	–	1.6 nM	–	–
C[C@@H](NC(=O)c1ccc(-c2ccncc2)cc1)c1cccc(C(=O)NC2CC2)c1 [Compound 76]	1.2 nM	480 nM	58000 nM	2.4 nM	120	–
O=C(NCC1CCC(F)(F)CC1)c1cccc([C@@H](CO)NC(=O)c2ccc(-c3ccncc3)cc2)c1 [Compound 24]	1.2 nM	1500 nM	28000 nM	2.2 nM	19	–
CN1CCc2ccc(NC(=O)c3cccc(C(CO)NC(=O)c4ccc(-c5ccncc5)cc4)c3)cc2C1 (stereo not shown) [Compound 2]	2.8 nM	–	–	2.8 nM	–	–
O=C(NCC1CCCCC1)c1cccc([C@@H](CO)NC(=O)c2ccc(-c3ccncc3)cc2)c1 [Compound 21]	1 nM	2100 nM	39000 nM	3.1 nM	19	–
C[C@@H](NC(=O)c1ccc(-c2ccncc2)cc1)c1cccc(C(=O)NC2CCCC2)c1 [Compound 36]	–	–	–	–	–	AUC % Extrap ([1]; IV - 1 mg/kg): 0.35%; Cl/F obs ([1]; IV - 1 mg/kg): 2.67 mL/min/kg; R-sq ([1]; IV - 1 mg/kg): 0.72; AUC % Extrap ([1]; PO - 5 mg/kg): 0.33%; R-sq ([1]; PO - 5 mg/kg): 1.00; AUC(0-inf) ([1]; mouse, plasma, IV - 1 mg/kg): 6070 ng·h/mL; C0 ([1]; mouse, plasma, IV - 1 mg/kg): 5910 ng/mL; Cmax ([1]; mouse, plasma, IV - 1 mg/kg): 4340 ng/mL; Tmax ([1]; mouse, plasma, IV - 1 mg/kg): 0.25 h; half-life ([1]; mouse, plasma, IV - 1 mg/kg): 2.59 h; AUC(0-t) ([1]; mouse, plasma, IV - 1 mg/kg): 5850 ng·h/mL; Vd ([1]; mouse, plasma, IV - 1 mg/kg): 0.27 L/kg; AUC(0-inf) ([1]; mouse, plasma, PO - 5 mg/kg): 10500 ng·h/mL; CL/F ([1]; mouse, plasma, PO - 5 mg/kg): 8 mL/min/kg; Cmax ([1]; mouse, plasma, PO - 5 mg/kg): 2500 ng/mL; Tmax ([1]; mouse, plasma, PO - 5 mg/kg): 1 h; half-life ([1]; mouse, plasma, PO - 5 mg/kg): 2.96 h; bioavailability ([1]; mouse, plasma, PO - 5 mg/kg vs IV - 1 mg/kg): 34.6%; AUC(0-t) ([1]; mouse, plasma, PO - 5 mg/kg): 8890 ng·h/mL; Vd/F ([1]; mouse, plasma, PO - 5 mg/kg, read-out: Vz/F obs): 2.04 L/kg
CN(C)Cc1ccc(CNC(=O)c2cccc([C@@H](CO)NC(=O)c3ccc(-c4ccncc4)cc3)c2)cc1 [Compound 32]	0.9 nM	60 nM	37000 nM	1.4 nM	619	–
CN(C)Cc1cccc(CNC(=O)c2cccc([C@@H](CO)NC(=O)c3ccc(-c4cn[nH]c4)cc3)c2)c1 [Compound 82]	0.65 nM	610 nM	> 100000 nM	2 nM	166	–
CC(C)NC(=O)c1cccc(CNC(=O)c2ccc(-c3ccncc3)cc2)c1 [Compound 5]	6.7 nM	1500 nM	> 100000 nM	21.7 nM	>68	–
CN1CCc2ccc(NC(=O)c3cccc(CNC(=O)c4ccc(-c5ccncc5)cc4)c3)cc2C1 [Compound B, reference compound]	8.7 nM	1300 nM	20000 nM	9.9 nM	15	–
CN(C)c1ccc(CNC(=O)c2cccc([C@@H](CO)NC(=O)c3ccc(-c4ccncc4)cc3)c2)cc1 [Compound 30]	1.5 nM	–	–	2.9 nM	–	–
O=C(NC1CCCC1)c1cccc([C@@H](CO)NC(=O)c2cccc(-c3ccncc3)c2)c1 [Compound 63]	4.1 nM	140 nM	> 100000 nM	14 nM	>721	–
COC(=O)N1CCC(NC(=O)c2cccc([C@@H](CO)NC(=O)c3ccc(-c4ccncc4)cc3)c2)CC1 [Compound 77]	0.94 nM	20 nM	> 100000 nM	2.1 nM	>5000	–
CN(C)CCNC(=O)COc1cccc(CNC(=O)c2ccc(-c3ccncc3)cc2)c1 [Compound 4]	18.9 nM	–	–	56.1 nM	–	–
